17 compounds from PubChem BioAssay (NCI) can be followed below.

Among the test systems are BT-549 breast; T-47D breast; OVCAR-4 ovarian; SK-MEL-28 melanoma; CAKI-1 renal; HS 578T breast; MDA-MB-435; UO-31 renal.
Common to all, as to experiment: DTP human tumour cell line panel, 48 h

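Each compound was tested at five concentrations against cells in 96-well plates for 48 hours. TGI is the concentration that stops growth completely.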

In general, TGI refers to the concentration at which net growth stops. In the case of `CCOP(=O)(OCC)C(Cc1cn(S(=O)(=O)c2ccc(C)cc2)cn1)C(=O)O` (stereo unspecified), the TGI in the assay on BT-549 breast, in the assay with T-47D breast, in the assay with OVCAR-4 ovarian, in the assay on SK-MEL-28 melanoma, in the assay with CAKI-1 renal and in the assay with HS 578T breast was above 100 µM each time. For the same compound, the TGI with MDA-MB-435 and in the assay with UO-31 renal was above 100 µM throughout.

As for `CCCCCCCCC/C=C1/CC(CO)(COC(=O)C2CCCCC2)OC1=O` (stereo unspecified), the TGI in the assay with BT-549 breast, with T-47D breast, in the assay on OVCAR-4 ovarian, in the assay with SK-MEL-28 melanoma, in the assay with CAKI-1 renal and in the assay on HS 578T breast was above 100 µM in each case. For the same compound, the TGI with MDA-MB-435 and with UO-31 renal was above 100 µM in each case.

As to `CN(C)CC(O)CNC(=O)Nc1ccccc1` (stereo unspecified), the total growth inhibition concentration (TGI) in the assay on BT-549 breast, with T-47D breast, in the assay with OVCAR-4 ovarian, in the assay on SK-MEL-28 melanoma, with CAKI-1 renal and in the assay with HS 578T breast was above 100 µM throughout. Moreover, the TGI in the assay on MDA-MB-435 and in the assay with UO-31 renal was above 100 µM in each case.

Take `C[C@]12CC[C@@H]3c4cc(C=O)c(OCc5ccccc5)cc4CC[C@H]3[C@@H]1CCC2OCc1ccccc1` (stereo partly specified): the TGI in the assay on BT-549 breast, with T-47D breast, with OVCAR-4 ovarian, in the assay on SK-MEL-28 melanoma, in the assay on CAKI-1 renal and in the assay with HS 578T breast was above 100 µM in each case. Besides, the TGI in the assay on MDA-MB-435 and in the assay on UO-31 renal was above 100 µM each time.

Regarding `O=C(NC12CC3CC(CC(C3)C1)C2)n1cnc2c(Cl)ncnc21`, the concentration for total growth inhibition (TGI) with BT-549 breast was 84.1 µM; with T-47D breast it was above 100 µM; in the assay with SK-MEL-28 melanoma, above 100 µM; in the assay with CAKI-1 renal it was above 100 µM; in the assay with HS 578T breast, 97.7 µM; with MDA-MB-435, 40 µM. This compound also showed a TGI with UO-31 renal above 100 µM.

Consider `Cc1cccc(N=Nc2ccc(O)c(CN(C)C)c2)c1`, for which the total growth inhibition concentration (TGI) in the assay with BT-549 breast was above 100 µM; in the assay on T-47D breast, 57.5 µM; with OVCAR-4 ovarian it was above 100 µM; in the assay on SK-MEL-28 melanoma, 36.9 µM; in the assay on CAKI-1 renal, above 100 µM; in the assay on HS 578T breast, 44.9 µM. For the same compound, the results for the concentration for total growth inhibition (TGI) in the assay with MDA-MB-435 and in the assay with UO-31 renal were 35.8 µM and 51.5 µM, respectively.

Regarding `C=c1c2ccccc2oc2nc3[nH]c(N)c(C#N)c(N)c3c(=N)c12`, the concentration for total growth inhibition (TGI) with BT-549 breast was above 100 µM; with T-47D breast it was above 100 µM; in the assay on OVCAR-4 ovarian, above 100 µM; with SK-MEL-28 melanoma it was above 100 µM; in the assay with CAKI-1 renal, above 100 µM; with HS 578T breast it was 86.2 µM. The TGI with MDA-MB-435 and in the assay with UO-31 renal was above 100 µM each time.

With `CN1CN(c2ccccc2)C2(CCN(C(=O)OC(C)(C)C)CC2)C1=O`, the TGI in the assay with BT-549 breast, in the assay on T-47D breast, with OVCAR-4 ovarian, in the assay with SK-MEL-28 melanoma, in the assay with CAKI-1 renal and in the assay with HS 578T breast was above 100 µM throughout. In addition, the TGI with MDA-MB-435 and in the assay with UO-31 renal was above 100 µM in each case.

For the compound `CC(C)(C)c1ccc(OCCOc2ccc(C(C)(C)C)cc2NC=O)c(NC=O)c1`, the TGI is 32.8 µM in the assay on BT-549 breast; above 86 µM with T-47D breast; 54.2 µM in the assay on OVCAR-4 ovarian; 32.6 µM in the assay with SK-MEL-28 melanoma; above 67.7 µM in the assay on CAKI-1 renal; 42.8 µM with HS 578T breast. Moreover, the TGI with MDA-MB-435 stood at 26.9 µM; in the assay with UO-31 renal it was 30.9 µM.

As to `CC(=O)OC1CC[C@@]2(C)C(=CC[C@@H]3[C@@H]2CC[C@]2(C)Nc4c(cnn4-c4ccc(F)cc4)C[C@@H]32)C1` (stereo partly specified), the TGI was above 100 µM with BT-549 breast; above 100 µM with T-47D breast; above 100 µM in the assay on OVCAR-4 ovarian; above 100 µM in the assay with SK-MEL-28 melanoma; 42.8 µM in the assay on CAKI-1 renal; above 100 µM in the assay with HS 578T breast. The TGI in the assay with MDA-MB-435 and with UO-31 renal was above 100 µM throughout.

With `C=C1C(O)C2OC(=O)C(=C)C2C(OC(=O)/C(C)=C/C)CC2(C)OC2C2OC12` (stereo unspecified), the TGI in the assay on BT-549 breast was 27.2 µM; in the assay on T-47D breast, above 100 µM; with OVCAR-4 ovarian, above 100 µM; with SK-MEL-28 melanoma, above 100 µM; in the assay on CAKI-1 renal it was 26.9 µM; in the assay on HS 578T breast, above 100 µM. Besides, the TGI was above 100 µM with MDA-MB-435 and 81.3 µM in the assay with UO-31 renal.

Consider `CCOC(=O)C1=C(C)NC(c2ccccc2)=C(C(=O)OCc2ccccc2)C1C#Cc1ccccc1` (stereo unspecified), for which the TGI in the assay on BT-549 breast is above 100 µM; in the assay on T-47D breast, above 100 µM; in the assay with CAKI-1 renal it was 57.4 µM; in the assay on HS 578T breast, above 100 µM; in the assay with MDA-MB-435, above 100 µM; with UO-31 renal, above 100 µM.

As for `COc1ccc2nc3c(nc2c1)C(C)(C)C=C3c1ccc(Br)cc1`, the total growth inhibition concentration (TGI) in the assay with BT-549 breast, in the assay with T-47D breast, in the assay with OVCAR-4 ovarian, with CAKI-1 renal, in the assay with HS 578T breast and in the assay on MDA-MB-435 was above 100 µM each time.

Turning to `COc1cccc2c1CCc1sc(CN3CCN(C)CC3)nc1-2`, the TGI in the assay on BT-549 breast, in the assay with T-47D breast, in the assay on OVCAR-4 ovarian, with SK-MEL-28 melanoma, in the assay on CAKI-1 renal and in the assay with HS 578T breast was above 100 µM throughout. Moreover, the TGI in the assay on MDA-MB-435 and in the assay on UO-31 renal was above 100 µM throughout.

As for `COc1ccc2cc(CNCCOCCOCCNCc3ccc4cc(OC)ccc4c3)ccc2c1`, the TGI with BT-549 breast was 3.59 µM; with T-47D breast, 3.22 µM; with OVCAR-4 ovarian, 4.07 µM; in the assay on SK-MEL-28 melanoma, 2.69 µM; in the assay on CAKI-1 renal it was 3.22 µM; in the assay with HS 578T breast, 3.46 µM. The TGI was 1.21 µM in the assay with MDA-MB-435 and 2.61 µM in the assay with UO-31 renal.

As for `C1=Nc2ccc(cc2)-c2ccc(cc2)N=Cc2ccccc2OCc2cccc(n2)COc2ccccc21`, the TGI is above 95.4 µM with BT-549 breast; above 100 µM with T-47D breast; above 100 µM in the assay with OVCAR-4 ovarian; above 100 µM in the assay on SK-MEL-28 melanoma; above 100 µM with CAKI-1 renal; 47 µM in the assay with HS 578T breast. In addition, the TGI in the assay with MDA-MB-435 and in the assay on UO-31 renal was above 100 µM each time.

For the compound `COc1c(C(=O)CC2c3c(cc4oc(C)cc(=O)c4c3OC)OC(=N)C2c2nc3ccccc3[nH]2)c(O)c(OC)c2occc12` (stereo unspecified), the TGI in the assay with BT-549 breast, in the assay with T-47D breast, with OVCAR-4 ovarian, in the assay with SK-MEL-28 melanoma, in the assay with CAKI-1 renal and in the assay with HS 578T breast was above 100 µM in each case. The TGI with MDA-MB-435 and in the assay on UO-31 renal was above 100 µM throughout.
